Consider 1 molecule from ChEMBL document CHEMBL3044878, “The interference between metformin treatment and TSH level in euthyroid type 2 diabetic patients” (Med Chem Res, 2013).

The structures appear in SMILES notation. Calls of active or inactive are those of the source. The rule behind the calls is not given here.

What all share (format): functional, organism-based
The species entered for test [1] is Homo sapiens. As to the kind of experiment: Effect on FT4 level in diabetic obese pateint by ELISA relative to untreated obese insulin-resistant control. In general terms: ELISA stands for enzyme-linked immunosorbent assay.
For test [2], the species on record is Homo sapiens. The experiment in a line: Effect on TSH level in diabetic obese pateint by ELISA relative to untreated healthy control.
The species named for test [3] is Homo sapiens. As to the kind of experiment: Effect on FT4 level in diabetic non-obese pateint by ELISA relative to untreated obese insulin-resistant control.
The species named for test [4] is Homo sapiens. The experiment in a line: Effect on TSH level in diabetic non-obese pateint by ELISA relative to untreated healthy control.
For test [5], the species on record is Homo sapiens. As to the kind of experiment: Effect on FT4 level in diabetic obese pateint by ELISA relative to untreated healthy control.
For test [6], the species on record is Homo sapiens. The experiment in a line: Effect on FT4 level in diabetic non-obese pateint by ELISA relative to untreated healthy control.
Test [7] is filed under the species Homo sapiens. The experiment in a line: Decrease in TSH level in diabetic non-obese pateint by ELISA relative to untreated obese insulin-resistant control.

Turning to `CN(C)C(=N)NC(=N)N`, the outcome in the test listed under Homo sapiens [1], in the test listed under Homo sapiens [2], in the test listed under Homo sapiens [3], in the test listed under Homo sapiens [4], in the test filed under Homo sapiens [5] and in the test listed under Homo sapiens [6] was inactive. For the same molecule, the result in the test filed under Homo sapiens [7] was Active.
